{
  "source": "patent US9012492B2",
  "about": "“Apocynin-lipoic acid conjugates and uses thereof” (priority 2011, dated 2015)",
  "key": {"[1]": {"test": "Stability in sodium phosphate buffer (HPLC)", "assay_type": "physicochemical", "settings": "for % Remaining / Apocynin area counts, % Remaining / Lipoic acid area counts, % Remaining: buffer, pH 7.4; for % Metabolism in 30 minutes / CLintr (mL/min/g liver): matrix buffer (no microsomes, no NADPH)", "description": "The stability of the compound of Formula (Ia) in a sodium phosphate buffer (50 mM, pH 7.4) was evaluated using HPLC. […] Area counts of apocynin and lipoid acid were found in 0 minute samples and were generally constant until the last time point measured (see: FIGS. 11-12 and Tables 5-6)."}, "[2]": {"tested_on": "human liver microsomes (HLM)", "test": "Metabolic stability using human liver microsomes", "assay_type": "in vitro ADME", "excerpt": "Table 9 summarizes the experimental conditions used in the studies of the metabolic stability of the compound of Formula (Ia) using dog liver microsomes and human liver microsomes."}, "[3]": {"tested_on": "markers of oxidative stress (SOD1, SOD2, GSH, GSSG, H2O2, HNE-His adducts, DNA fragmentation)", "test": "Markers of oxidative stress in ischemic cortex following I/R", "assay_type": "in vivo, rat", "description": "To examine the effect of the compound of Formula (Ia) on various markers of oxidative stress throughout the 5.5 h of reperfusion, injections of the optimal dose of the compound of Formula (Ia) (0.1 mg/kg; 1 ml/kg iv; n=5 per group at each time point) or vehicle (25% EtOH; 1 ml/kg iv; n=5 per group at each time point) were made 30 min prior to the onset of MCAO. The sutures were left in place for 30 min. Brains were removed, and cortical tissue was collected at the end of the 30 min of occlusion (no reperfusion), or following 30 min, 1, 2, 4, or 5.5 h of reperfusion. At the end of each time point, animals were perfused transcardially with 200 ml of 100 mM PBS (pH 7.4), and the brains were removed. The ipsilateral cerebral cortex was isolated, and an 8-mm diameter biopsy punch was used to obtain tissue from the ischemic core. The tissue was weighed and homogenized (40% wt/vol) in ice-cold PBS. Aliquots of whole homogenate were frozen at −80° C. immediately for measurements of hydrogen peroxide (H2O2). The remaining sample was diluted 1:2 with ice-cold PBS and centrifuged at 12,000 g for 15 min at 4° C. Aliquots of the supernatant were stored at −80° C. until assayed for protein levels, superoxide dismutase (SOD1 and SOD2) activity, 4-hydroxynonenal-histodine (HNE-His) adducts (OxiSelect Kits, Cell Biolabs, San Diego, Calif.), reduced glutathione (GSH), oxidized glutathione (GSSG; Cayman Chemical, Ann Arbor Mich.), and cytoplasmic enrichment of DNA fragments (apoptosis) (Roche Diagnostics, Montreal, QC, Canada) using selective assay kits according to manufacturer's specifications."}},
  "note": "Where two headings read alike, the source gives them in different places.",
  "data": [
    {"smiles": "COc1cc(C(C)=O)ccc1OC(=O)CCCCC1CCSS1", "note": "(stereo not shown) [compound of Formula (Ia)]", "values": [
      {"measurement": "% Remaining", "setting": "[1]; 0.25 h, 0.5 μM", "result": 65, "unit": "%"},
      {"measurement": "Apocynin area counts, % Remaining", "setting": "[1]; 0.25 h, 0.5 μM", "result": 68, "unit": "%"},
      {"measurement": "Lipoic acid area counts, % Remaining", "setting": "[1]; 0.25 h, 0.5 μM", "result": 106, "unit": "%"},
      {"measurement": "% Remaining", "setting": "[1]; 0.25 h, 10 μM", "result": 72, "unit": "%"},
      {"measurement": "Apocynin area counts, % Remaining", "setting": "[1]; 0.25 h, 10 μM", "result": 86, "unit": "%"},
      {"measurement": "Lipoic acid area counts, % Remaining", "setting": "[1]; 0.25 h, 10 μM", "result": 114, "unit": "%"},
      {"measurement": "% Remaining", "setting": "[1]; 0.3 h, 0.5 μM", "result": 59, "unit": "%"},
      {"measurement": "Apocynin area counts, % Remaining", "setting": "[1]; 0.3 h, 0.5 μM", "result": 70, "unit": "%"},
      {"measurement": "Lipoic acid area counts, % Remaining", "setting": "[1]; 0.3 h, 0.5 μM", "result": 96, "unit": "%"},
      {"measurement": "% Remaining", "setting": "[1]; 0.3 h, 10 μM", "result": 71, "unit": "%"},
      {"measurement": "Apocynin area counts, % Remaining", "setting": "[1]; 0.3 h, 10 μM", "result": 80, "unit": "%"},
      {"measurement": "Lipoic acid area counts, % Remaining", "setting": "[1]; 0.3 h, 10 μM", "result": 121, "unit": "%"},
      {"measurement": "% Remaining", "setting": "[1]; 0.35 h, 0.5 μM", "result": 76, "unit": "%"},
      {"measurement": "Apocynin area counts, % Remaining", "setting": "[1]; 0.35 h, 0.5 μM", "result": 82, "unit": "%"},
      {"measurement": "Lipoic acid area counts, % Remaining", "setting": "[1]; 0.35 h, 0.5 μM", "result": 117, "unit": "%"},
      {"measurement": "% Remaining", "setting": "[1]; 0.35 h, 10 μM", "result": 69, "unit": "%"},
      {"measurement": "Apocynin area counts, % Remaining", "setting": "[1]; 0.35 h, 10 μM", "result": 82, "unit": "%"},
      {"measurement": "Lipoic acid area counts, % Remaining", "setting": "[1]; 0.35 h, 10 μM", "result": 127, "unit": "%"},
      {"measurement": "% Remaining", "setting": "[1]; 0.45 h, 0.5 μM", "result": 71, "unit": "%"},
      {"measurement": "Apocynin area counts, % Remaining", "setting": "[1]; 0.45 h, 0.5 μM", "result": 79, "unit": "%"},
      {"measurement": "Lipoic acid area counts, % Remaining", "setting": "[1]; 0.45 h, 0.5 μM", "result": 119, "unit": "%"},
      {"measurement": "% Remaining", "setting": "[1]; 0.45 h, 10 μM", "result": 64, "unit": "%"},
      {"measurement": "Apocynin area counts, % Remaining", "setting": "[1]; 0.45 h, 10 μM", "result": 80, "unit": "%"},
      {"measurement": "Lipoic acid area counts, % Remaining", "setting": "[1]; 0.45 h, 10 μM", "result": 134, "unit": "%"},
      {"measurement": "% Remaining", "setting": "[1]; 0.5 h, 0.5 μM", "result": 94, "unit": "%"},
      {"measurement": "Apocynin area counts, % Remaining", "setting": "[1]; 0.5 h, 0.5 μM", "result": 85, "unit": "%"},
      {"measurement": "Lipoic acid area counts, % Remaining", "setting": "[1]; 0.5 h, 0.5 μM", "result": 151, "unit": "%"},
      {"measurement": "% Remaining", "setting": "[1]; 0.5 h, 10 μM", "result": 71, "unit": "%"},
      {"measurement": "Apocynin area counts, % Remaining", "setting": "[1]; 0.5 h, 10 μM", "result": 78, "unit": "%"},
      {"measurement": "Lipoic acid area counts, % Remaining", "setting": "[1]; 0.5 h, 10 μM", "result": 141, "unit": "%"},
      {"measurement": "% Metabolism in 30 minutes", "setting": "[1]; DLM/HLM study", "result": 34, "unit": "%"},
      {"measurement": "CLintr (mL/min/g liver)", "setting": "[1]; DLM/HLM study", "result": 3.2, "unit": "mL/min/g liver"},
      {"measurement": "% Metabolism in 30 minutes", "setting": "[1]; rat liver microsome study", "result": 21, "unit": "%"},
      {"measurement": "CLintr (mL/min/g liver)", "setting": "[1]; rat liver microsome study", "result": 2.3, "unit": "mL/min/g liver"},
      {"measurement": "% Metabolism in 30 minutes", "setting": "[2]; HLM control (without NADPH)", "result": 0, "unit": "%"},
      {"measurement": "CLintr (mL/min/g liver)", "setting": "[2]; HLM control (without NADPH)", "result": ">67", "unit": "mL/min/g liver"},
      {"measurement": "% Metabolism in 30 minutes", "setting": "[2]; HLM reaction (with NADPH)", "result": 0, "unit": "%"},
      {"measurement": "CLintr (mL/min/g liver)", "setting": "[2]; HLM reaction (with NADPH)", "result": ">67", "unit": "mL/min/g liver"},
      {"measurement": "mitochondrial SOD2 activity levels vs vehicle", "setting": "[3]; 0.1 mg/kg iv 30 min prior to MCAO, 4-h time point", "result": "significantly higher"},
      {"measurement": "oxidized form of GSH (GSSG) vs vehicle", "setting": "[3]; 0.1 mg/kg iv 30 min prior to MCAO, after 5.5 h of reperfusion", "result": "significantly greater"},
      {"measurement": "total amount of GSH (oxidized and reduced forms) vs vehicle", "setting": "[3]; 0.1 mg/kg iv 30 min prior to MCAO, any time point", "result": "No significant differences"},
      {"measurement": "cytoplasmic SOD1 activity levels vs vehicle", "setting": "[3]; 0.1 mg/kg iv 30 min prior to MCAO, any time point during 5.5 h reperfusion", "result": "no significant differences"},
      {"measurement": "level of hydrogen peroxide vs vehicle", "setting": "[3]; 0.1 mg/kg iv 30 min prior to MCAO, any time point over 5.5 h reperfusion", "result": "not significantly greater"},
      {"measurement": "DNA fragmentation (apoptotic cell death)", "setting": "[3]; 0.1 mg/kg iv 30 min prior to MCAO, each time point", "result": "No significant changes"},
      {"measurement": "HNE-His adduct levels vs vehicle", "setting": "[3]; 0.1 mg/kg iv 30 min prior to occlusion, following 2 h of reperfusion", "result": "significantly attenuated"},
      {"measurement": "% Change with time", "setting": "Un-treated plasma, 0 h", "result": 100.00, "unit": "%"},
      {"measurement": "% Change with time", "setting": "Un-treated plasma, <1 min", "result": 0.00, "unit": "%"},
      {"measurement": "% remaining in spiked plasma sample", "setting": "immediate extraction, no stabilizer", "result": "~0", "unit": "%"},
      {"measurement": "% Change with time", "setting": "plasma + Formic acid, 0 h", "result": 100.00, "unit": "%"},
      {"measurement": "% Change with time", "setting": "plasma + Formic acid, 10 min", "result": 2.00, "unit": "%"},
      {"measurement": "% Change with time", "setting": "plasma + Formic acid, <1 min", "result": 15.00, "unit": "%"},
      {"measurement": "% Change with time", "setting": "plasma + Sodium fluoride, 0 h", "result": 100.00, "unit": "%"},
      {"measurement": "% Change with time", "setting": "plasma + Sodium fluoride, <1 min", "result": 2.00, "unit": "%"},
      {"measurement": "stability in biological matrix", "setting": "rat/dog blood and plasma", "result": "unstable"},
      {"measurement": "time stabilized in plasma", "setting": "with combination of DV and FA", "result": "up to 4 h"}
    ]}
  ]
}
